Measurements taken from ChEMBL document CHEMBL3734664, “Noncovalent Mutant Selective Epidermal Growth Factor Receptor Inhibitors: A Lead Optimization Case Study” (J Med Chem, 2015).

Assays:
[1] = physchem; details: buffer, pH 7.4, logD
Description: Lipophilicity, log D of the compound at pH 7.4 by microscale shake flask method

[2] = target: T1, Epidermal growth factor receptor (Homo sapiens, UniProt P00533, 746-750DEL/T790M); test: Inhibition of human EGFR T790M/del (746 to 750) deletion mutant using Fl-EEPLYWSFPAKKK-CONH2 as substrate preincubated for 30 mins followed by addition of substrate measured after 30 mins by Morrison plot analysis; assay type: protein assay; details: read-out: Ki(app)
[3] = Plasma clearance in rat at 5 mg/kg, iv; assay type: ADME, organism-based
[4] = system: Liver microsome; test: Drug level in rat liver microsomes treated with (R)-1-[6-[2-(cis-3-Fluoro-4-methoxypiperidin-1-yl)pyrimidin-4-ylamino]-1-((S)-2,2,2-trifluoro-1-methylethyl)-1H-imidazo[4,5-c]pyridin-2-yl]ethanol; assay type: ADME
[5] = system: Mus musculus; test: In vivo inhibition of EGFR in human NCI-H1975 cells xenografted in SCID mouse assessed as suppression of AKT phosphorylation at 300 mg/kg, po qd everyday for 3 days measured 2 to 8 hrs post last dose by electrochemiluminescent immunoassay; assay type: functional
[6] = system: Mus musculus; test: In vivo inhibition of EGFR in human NCI-H1975 cells xenografted in SCID mouse assessed as suppression of ERK phosphorylation at 300 mg/kg, po qd everyday for 3 days measured 2 to 8 hrs post last dose by electrochemiluminescent immunoassay; assay type: functional
[7] = Half life in rat; assay type: ADME, organism-based; details: in vivo
[8] = Volume of distribution at steady state in rat; assay type: ADME, organism-based; details: in vivo, read-out: Vdss
[9] = target: T2, Epidermal growth factor receptor (Homo sapiens, UniProt P00533)
[10] = Unbound fraction in mouse plasma; assay type: ADME, cell-free
[11] = system: Mus musculus; test: In vivo inhibition of EGFR in human NCI-H1975 cells xenografted in po dosed SCID mouse assessed as suppression of AKT phosphorylation administered as qd everyday for 3 days measured 2 to 8 hrs post last dose by electrochemiluminescent immunoassay; assay type: functional
[12] = Antiproliferative activity against erlotinib-resistant human PC9 cells expressing EGFR with ex19del and T790M mutations after 72 hrs by luminescence assay; assay type: functional, cell-based; details: PC-9, 72 h
[13] = system: Mus musculus; test: In vivo inhibition of EGFR in human NCI-H1975 cells xenografted in po dosed SCID mouse assessed as suppression of ERK phosphorylation administered as qd everyday for 3 days measured 2 to 8 hrs post last dose by electrochemiluminescent immunoassay; assay type: functional
[14] = system: Rattus norvegicus; test: Unbound plasma clearance in rat at 5 mg/kg, iv; assay type: ADME, organism-based; details: in vivo
[15] = system: NCI-H1975; test: Antiproliferative activity against human NCI-H1975 cells expressing EGFR T790M/L858R double mutant after 72 hrs by luminescence assay; assay type: functional, cell-based; details: NCI-H1975, 72 h
[16] = target: T2, Epidermal growth factor receptor; remark: listed apart in the source
Description: Inhibition of EGFR phosphorylation in human NCI-H292 cells preincubated for 1 hr followed by stimulation with EGF for 8 mins by electrochemiluminescent immunoassay

[17] = target: Epidermal growth factor receptor (Homo sapiens, UniProt P00533, L858R/T790M)
[18] = system: NCI-H292; test: Antiproliferative activity against human NCI-H292 cells expressing wild type EGFR after 72 hrs by luminescence assay; assay type: functional, cell-based; details: NCI-H292, 72 h
[19] = target: T1, Epidermal growth factor receptor; test: Inhibition of EGFR T790M/del (746 to 750) deletion mutant phosphorylation in erlotinib-resistant human PC9 cells preincubated for 1 hr followed by stimulation with EGF for 8 mins by electrochemiluminescent immunoassay; assay type: cell-based, PC-9
[20] = system: Mus musculus; test: In vivo inhibition of EGFR phosphorylation in human NCI-H1975 cells xenografted in SCID mouse at 300 mg/kg, po qd everyday for 3 days measured 2 to 8 hrs post last dose by electrochemiluminescent immunoassay; assay type: functional
[21] = system: Hepatocyte; test: Drug level in rat hepatocytes treated with (R)-1-[6-[2-(cis-3-Fluoro-4-methoxypiperidin-1-yl)pyrimidin-4-ylamino]-1-((S)-2,2,2-trifluoro-1-methylethyl)-1H-imidazo[4,5-c]pyridin-2-yl]ethanol; assay type: ADME, cell-based
[22] = Oral bioavailability in rat; assay type: ADME, organism-based; details: in vivo

T1 sequence (P00533 whole entry, looked up, stated change not applied): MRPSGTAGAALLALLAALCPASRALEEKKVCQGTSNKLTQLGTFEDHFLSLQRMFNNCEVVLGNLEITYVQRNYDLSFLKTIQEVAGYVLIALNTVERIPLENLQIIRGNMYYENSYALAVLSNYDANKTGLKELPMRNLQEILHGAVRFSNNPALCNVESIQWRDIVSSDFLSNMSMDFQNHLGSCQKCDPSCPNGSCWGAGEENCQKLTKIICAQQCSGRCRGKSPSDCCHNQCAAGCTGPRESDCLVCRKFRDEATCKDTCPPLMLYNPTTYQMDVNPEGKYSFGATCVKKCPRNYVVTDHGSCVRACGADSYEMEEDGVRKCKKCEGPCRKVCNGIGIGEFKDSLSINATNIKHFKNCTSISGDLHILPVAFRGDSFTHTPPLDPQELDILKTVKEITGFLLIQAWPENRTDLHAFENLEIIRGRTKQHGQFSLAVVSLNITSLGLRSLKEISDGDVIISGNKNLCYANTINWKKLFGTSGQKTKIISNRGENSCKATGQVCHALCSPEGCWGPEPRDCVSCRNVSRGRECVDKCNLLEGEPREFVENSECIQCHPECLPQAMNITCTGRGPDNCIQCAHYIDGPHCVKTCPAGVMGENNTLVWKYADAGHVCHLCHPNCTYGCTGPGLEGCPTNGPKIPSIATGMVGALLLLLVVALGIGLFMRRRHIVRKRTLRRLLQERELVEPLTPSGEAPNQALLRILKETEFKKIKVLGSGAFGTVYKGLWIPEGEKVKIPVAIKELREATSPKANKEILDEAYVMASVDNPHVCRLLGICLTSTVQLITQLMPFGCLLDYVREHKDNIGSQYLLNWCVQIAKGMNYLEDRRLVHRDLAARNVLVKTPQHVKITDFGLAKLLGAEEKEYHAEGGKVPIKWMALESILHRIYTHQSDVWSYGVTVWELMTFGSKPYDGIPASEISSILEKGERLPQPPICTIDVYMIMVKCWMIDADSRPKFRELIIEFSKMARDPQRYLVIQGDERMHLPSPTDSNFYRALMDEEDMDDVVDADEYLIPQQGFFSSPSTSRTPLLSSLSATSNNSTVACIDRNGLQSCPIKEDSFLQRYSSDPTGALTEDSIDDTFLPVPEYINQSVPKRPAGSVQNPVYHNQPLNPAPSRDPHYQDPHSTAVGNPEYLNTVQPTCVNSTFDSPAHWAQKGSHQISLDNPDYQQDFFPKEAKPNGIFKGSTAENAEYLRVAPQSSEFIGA
T2 sequence (P00533 whole entry): as the sequence (P00533 whole entry, looked up, stated change not applied) above
Epidermal growth factor receptor (Homo sapiens, UniProt P00533, L858R/T790M), sequence (P00533 25-1210 T790M/L858R limits assumed): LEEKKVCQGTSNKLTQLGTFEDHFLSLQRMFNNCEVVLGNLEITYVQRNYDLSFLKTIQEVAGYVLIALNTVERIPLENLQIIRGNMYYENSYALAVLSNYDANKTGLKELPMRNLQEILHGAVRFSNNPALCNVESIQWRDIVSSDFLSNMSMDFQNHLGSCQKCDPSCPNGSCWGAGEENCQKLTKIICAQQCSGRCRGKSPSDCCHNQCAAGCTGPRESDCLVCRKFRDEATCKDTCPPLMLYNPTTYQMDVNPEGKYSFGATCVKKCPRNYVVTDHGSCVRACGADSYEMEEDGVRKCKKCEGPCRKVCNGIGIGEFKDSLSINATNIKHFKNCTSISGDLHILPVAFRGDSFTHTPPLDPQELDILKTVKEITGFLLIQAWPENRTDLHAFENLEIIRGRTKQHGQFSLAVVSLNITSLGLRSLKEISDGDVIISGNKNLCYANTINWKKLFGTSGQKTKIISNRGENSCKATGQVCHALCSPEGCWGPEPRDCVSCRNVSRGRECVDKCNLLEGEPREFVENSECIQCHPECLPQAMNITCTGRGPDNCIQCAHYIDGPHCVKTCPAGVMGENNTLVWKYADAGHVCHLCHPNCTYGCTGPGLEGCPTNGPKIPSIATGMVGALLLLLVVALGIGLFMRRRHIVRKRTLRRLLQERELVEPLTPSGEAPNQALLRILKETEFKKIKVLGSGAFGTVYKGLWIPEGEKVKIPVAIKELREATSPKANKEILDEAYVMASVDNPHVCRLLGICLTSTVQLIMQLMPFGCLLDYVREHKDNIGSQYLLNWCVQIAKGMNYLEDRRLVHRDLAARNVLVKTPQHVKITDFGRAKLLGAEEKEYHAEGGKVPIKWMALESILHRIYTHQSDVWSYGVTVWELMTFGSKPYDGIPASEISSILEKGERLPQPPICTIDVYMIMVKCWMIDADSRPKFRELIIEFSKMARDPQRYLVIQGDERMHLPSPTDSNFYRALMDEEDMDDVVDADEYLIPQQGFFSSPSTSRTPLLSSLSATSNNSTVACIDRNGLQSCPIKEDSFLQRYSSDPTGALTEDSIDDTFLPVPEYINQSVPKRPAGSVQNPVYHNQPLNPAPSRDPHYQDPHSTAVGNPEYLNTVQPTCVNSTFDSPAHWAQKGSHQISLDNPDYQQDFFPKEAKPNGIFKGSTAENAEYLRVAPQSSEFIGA

- logD [1]: 1.8
- Ki [2]: 0.006 µM
- clearance [3]: 71 mL/min/kg
- Drug metabolism [4]: metabolite_detected
- half-life [7]: 42.6 min
- Vd [8]: 3.5 L/kg
- Ki [9]: 0.313 µM
- fraction unbound [10]: 0.207
- CL free [14]: 348 mL/min/kg
- EC50 [15]: 0.868 µM
- IC50 [16]: > 10 µM
- Ki [17]: 0.0025 µM
- EC50 [18]: > 10 µM
- IC50 [19]: 0.081 µM
- Drug metabolism [21]: metabolite_detected
- bioavailability [22]: 29%
Structure (SMILES): C[C@@H](O)c1nc2cnc(Nc3ccnc(N4CC[C@H](O)[C@H](F)C4)n3)cc2n1[C@H](C)C(F)(F)F
- inhibition in vivo at 300 mg/kg [5]: > 65%
- inhibition in vivo at 300 mg/kg [6]: > 90%
- fEC50 [11]: 0.5 µM
- EC50 [12]: 0.17 µM
- fEC50 [13]: 0.3 µM
- inhibition in vivo at 300 mg/kg [20]: > 90%
